Test system: 616215-338-R-J1-PDC tumor spheroids, viability
Assay: Anticancer human tumor 616215-338-R-J1-PDC patient-derived colon adenocarcinoma cell line growth inhibition [GQUAD]
Details: spheroids with HUVEC and MSC; for IC50: curve of first compound; for viability, T/C: stronger effect = lower value; active = viability on the fitted dose curve at most 10% of control; inactive = the rest
Procedure, shortened: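 Multi-cell-type spheroids of tumor cells with HUVEC and mesenchymal stem cells, treated with drug combinations. Concentrations descend in half-log steps from near clinical Cmax, or from 10 microM where Cmax is unknown; viability read-out.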

[1] = second compound 0.0316 µM, first compound 0.0316 µM
[2] = second compound 0.0316 µM, first compound 0.1 µM
[3] = second compound 0.0316 µM, first compound 0.316 µM
[4] = second compound 0.0316 µM, first compound 1 µM
[5] = second compound 0.0316 µM, first compound 3.16 µM
[6] = second compound 0.0316 µM, first compound 10 µM
[7] = second compound 0.1 µM, first compound 0.0316 µM
[8] = second compound 0.1 µM, first compound 0.1 µM
[9] = second compound 0.1 µM, first compound 0.316 µM
[10] = second compound 0.1 µM, first compound 1 µM
[11] = second compound 0.1 µM, first compound 3.16 µM
[12] = second compound 0.1 µM, first compound 10 µM
[13] = second compound 0.316 µM, first compound 0.0316 µM
[14] = second compound 0.316 µM, first compound 0.1 µM
[15] = second compound 0.316 µM, first compound 0.316 µM
[16] = second compound 0.316 µM, first compound 1 µM
[17] = second compound 0.316 µM, first compound 3.16 µM
[18] = second compound 0.316 µM, first compound 10 µM
[19] = second compound 1 µM, first compound 0.0316 µM
[20] = second compound 1 µM, first compound 0.1 µM
[21] = second compound 1 µM, first compound 0.316 µM
[22] = second compound 1 µM, first compound 1 µM
[23] = second compound 1 µM, first compound 3.16 µM
[24] = second compound 1 µM, first compound 10 µM
[25] = second compound 3.16 µM, first compound 0.0316 µM
[26] = second compound 3.16 µM, first compound 0.1 µM
[27] = second compound 3.16 µM, first compound 0.316 µM
[28] = second compound 3.16 µM, first compound 1 µM
[29] = second compound 3.16 µM, first compound 3.16 µM
[30] = second compound 3.16 µM, first compound 10 µM
[31] = second compound 10 µM, first compound 0.0316 µM
[32] = second compound 10 µM, first compound 0.1 µM
[33] = second compound 10 µM, first compound 0.316 µM
[34] = second compound 10 µM, first compound 1 µM
[35] = second compound 10 µM, first compound 3.16 µM
[36] = second compound 10 µM, first compound 10 µM
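Note: spheroids exposed to agents for 7 days before readout.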
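Throughout, for viability, T/C: percent viability relative to DMSO vehicle control wells taken as 100%.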

COc1cccc2c1C(=O)c1c(O)c3c(c(O)c1C2=O)CC(O)(C(=O)CO)CC3OC1CC(N)C(O)C(C)O1 (stereo not drawn) + Cc1cnc(CNC(=O)c2c(=O)c3ccc(N4CCCN(C)CC4)nc3n3c2sc2ccccc23)cn1
410 nM: IC50 (second compound 0.1 µM)
inactive: viability, T/C [1] 102% | viability, T/C [2] 54.7% | viability, T/C [3] 50.2% | viability, T/C [4] 40.5% | viability, T/C [5] 20.2% | viability, T/C [7] 56% | viability, T/C [8] 67.4% | viability, T/C [9] 49.7% | viability, T/C [10] 39.2% | viability, T/C [11] 19.4% | viability, T/C [13] 38.2% | viability, T/C [14] 39% | viability, T/C [15] 32% | viability, T/C [16] 27.7% | viability, T/C [17] 19.9% | viability, T/C [19] 28.1% | viability, T/C [20] 37.7% | viability, T/C [21] 34.5% | viability, T/C [22] 26% | viability, T/C [23] 12.6% | viability, T/C [25] 29.8% | viability, T/C [26] 28.1% | viability, T/C [27] 35.1% | viability, T/C [28] 16.4% | viability, T/C [29] 15.3% | viability, T/C [31] 28% | viability, T/C [32] 20.8% | viability, T/C [33] 28.3% | viability, T/C [34] 23.1%
< 31.6 nM: IC50 (second compound 0.316 µM) | IC50 (second compound 1 µM) | IC50 (second compound 3.16 µM) | IC50 (second compound 10 µM)
381 nM: IC50 (second compound 0.0316 µM)
active: viability, T/C [6] 1.32% | viability, T/C [12] 1.25% | viability, T/C [18] 0.1% | viability, T/C [24] 0.1% | viability, T/C [30] 0.16% | viability, T/C [35] 3.24% | viability, T/C [36] 0.25%

Nc1ccn(C2OC(CO)C(O)C2(F)F)c(=O)n1 (stereo not drawn) + Cc1[nH]c2ccc(F)cc2c1-c1nc2c3cccnc3c3ncccc3c2[nH]1
inactive: viability, T/C [1] 39% | viability, T/C [2] 26.1% | viability, T/C [3] 19.7% | viability, T/C [4] 13.7% | viability, T/C [5] 14% | viability, T/C [6] 16.1% | viability, T/C [7] 51.6% | viability, T/C [8] 20.2% | viability, T/C [9] 13.4% | viability, T/C [10] 12.9% | viability, T/C [11] 16.2% | viability, T/C [12] 17.1% | viability, T/C [13] 43.9% | viability, T/C [14] 23.8% | viability, T/C [15] 14.6% | viability, T/C [16] 13.9% | viability, T/C [17] 16% | viability, T/C [18] 13.6% | viability, T/C [19] 39.2% | viability, T/C [20] 31.1% | viability, T/C [21] 14.8% | viability, T/C [22] 11.8% | viability, T/C [23] 13.4% | viability, T/C [24] 13.8% | viability, T/C [25] 29.9% | viability, T/C [26] 22% | viability, T/C [27] 18.2% | viability, T/C [28] 13.8% | viability, T/C [29] 11% | viability, T/C [30] 14.6% | viability, T/C [31] 38.7% | viability, T/C [32] 17.2% | viability, T/C [33] 12.4% | viability, T/C [34] 14% | viability, T/C [35] 13.8% | viability, T/C [36] 13.8%
< 31.6 nM: IC50 (second compound 0.0316 µM) | IC50 (second compound 0.316 µM) | IC50 (second compound 1 µM) | IC50 (second compound 3.16 µM) | IC50 (second compound 10 µM)
33.6 nM: IC50 (second compound 0.1 µM)

O=C(c1cc(Cc2n[nH]c(=O)c3ccccc23)ccc1F)N1CCN(C(=O)C2CC2)CC1 + Cc1cnc(CNC(=O)c2c(=O)c3ccc(N4CCCN(C)CC4)nc3n3c2sc2ccccc23)cn1
inactive: viability, T/C [1] 97.3% | viability, T/C [2] 103% | viability, T/C [3] 107% | viability, T/C [4] 87.9% | viability, T/C [5] 84.3% | viability, T/C [6] 68.7% | viability, T/C [7] 68.5% | viability, T/C [8] 69.3% | viability, T/C [9] 74.4% | viability, T/C [10] 64.3% | viability, T/C [11] 53.9% | viability, T/C [12] 51.5% | viability, T/C [13] 43.6% | viability, T/C [14] 39.4% | viability, T/C [15] 46.4% | viability, T/C [16] 52.2% | viability, T/C [17] 36.1% | viability, T/C [18] 35.1% | viability, T/C [19] 42.8% | viability, T/C [20] 28.7% | viability, T/C [21] 30.4% | viability, T/C [22] 54.8% | viability, T/C [23] 38.5% | viability, T/C [24] 26.7% | viability, T/C [25] 28.1% | viability, T/C [26] 26.6% | viability, T/C [27] 23.2% | viability, T/C [28] 28.7% | viability, T/C [29] 41.4% | viability, T/C [30] 30.3% | viability, T/C [31] 36.6% | viability, T/C [32] 28.7% | viability, T/C [33] 25.2% | viability, T/C [34] 22.7% | viability, T/C [35] 44.1% | viability, T/C [36] 24.3%
< 31.6 nM: IC50 (second compound 0.316 µM) | IC50 (second compound 1 µM) | IC50 (second compound 3.16 µM) | IC50 (second compound 10 µM)
> 10000 nM: IC50 (second compound 0.0316 µM) | IC50 (second compound 0.1 µM)

CC1COCCN1c1cc(-c2ccnn2C)c2ccnc(-c3ccn[nH]3)c2n1 (stereo not drawn) + CN(C)c1ccc(Nc2c3ccc(NC(=O)CCN4CCCC4)cc3nc3cc(NC(=O)CCN4CCCC4)ccc23)cc1
129 nM: IC50 (second compound 3.16 µM) | IC50 (second compound 10 µM)
inactive: viability, T/C [1] 99.1% | viability, T/C [2] 61.8% | viability, T/C [3] 31.1% | viability, T/C [4] 25.6% | viability, T/C [5] 18.4% | viability, T/C [6] 21.6% | viability, T/C [7] 94.4% | viability, T/C [8] 58.5% | viability, T/C [9] 33.5% | viability, T/C [10] 21.2% | viability, T/C [11] 21.6% | viability, T/C [12] 22.4% | viability, T/C [13] 93% | viability, T/C [14] 65.4% | viability, T/C [15] 29.1% | viability, T/C [16] 23.1% | viability, T/C [17] 20.7% | viability, T/C [18] 18.6% | viability, T/C [19] 90.1% | viability, T/C [20] 55.5% | viability, T/C [21] 38.1% | viability, T/C [22] 22.6% | viability, T/C [23] 18.8% | viability, T/C [24] 25.7% | viability, T/C [25] 91.7% | viability, T/C [26] 55.6% | viability, T/C [27] 30.2% | viability, T/C [28] 23.8% | viability, T/C [29] 22.2% | viability, T/C [30] 16.7% | viability, T/C [31] 88.4% | viability, T/C [32] 53.8% | viability, T/C [33] 35.8% | viability, T/C [34] 24.2% | viability, T/C [35] 19.7% | viability, T/C [36] 18.5%
142 nM: IC50 (second compound 1 µM)
147 nM: IC50 (second compound 0.1 µM)
164 nM: IC50 (second compound 0.316 µM)
157 nM: IC50 (second compound 0.0316 µM)
